Reference: US9701707B2, “Methods of synthesizing substituted purine compounds” (Epizyme, Inc., priority 2013, dated 2017)

Tests used:
Format in all cases: physicochemical
[1] = Solid-state stability (chemical and physical); details: 5° C. Closed Dish, 7 Days
Method: Chemical Stability: Accurately weighed ˜10 mg Form B was placed into four 10-ml volumetric flasks. The samples were stored at 5° C. closed dish, 25° C./57% RH open dish, 40° C./75% RH open dish, and 60° C. closed dish for 7 days. The sample stored at 5° C. was used as a control. Assay and total related substances for each sample were checked at the end of 7 days.
Physical Stability: Accurately weighed ˜15 mg of Form B was placed into 5-ml glass vials and the samples were stored at 5° C. closed dish, 25° C./57% RH open dish, 40° C./75% RH open dish, and 60° C. closed dish for 7 days. Samples were analyzed by XRPD and TGA (FIG. 24).

Solution photostability = assay: Solution photostability
Method: Solution Photostability: Weighed ˜1 mg of Form B and dissolved in 3 solutions at different pHs (0.01 N HCl, 0.01 N NaOH and water). Methanol was added as a co-solvent to dissolve Form B in solutions (i.e., 10% (v/v) methanol in 0.01 N HCl, 20% (v/v) in water and 30% (v/v) in 0.01 N NaOH), the final concentration was 0.1 mg/mL. For each solution, 1 sample and 1 control covered in foil were put into the photo chamber for Vis study (2 vials total for each solution). Measure the concentration and monitor the degradation.

[2] = Equilibrium solubility in organic solvents; details: RT; for Remaining Solid: XRPD; for solubility at 24 h: organic solvent or mixture, thermodynamic from solid
Method: Approximately 10 mg of Form B was weighed into a 1-ml glass vial followed by addition of 0.5 ml relevant media. Each sample was continuously stirred using a magnetic stir bar at 25° C. for 24 h. The suspension was then filtered using a nylon membrane with a pore diameter of 0.22 μm. The filtrates were diluted for HPLC analysis and final pH was measured. The solid residue of each sample was collected for XRPD analysis. The solubility of Form B was also determined in commonly used organic solvents (diluents or HPLC mobile phase). The solubility data summarized in Table 10 indicates Form B is quite soluble in MeOH, EtOH, and IPA.

[3] = Equilibrium solubility in aqueous media; details: for Solubility: LOD 0.1 μg/ml
Method: Approximately 10 mg of Form B was weighed into a 1-ml glass vial followed by addition of 0.5 ml relevant media. Each sample was continuously stirred using a magnetic stir bar at 25° C. for 24 h. The suspension was then filtered using a nylon membrane with a pore diameter of 0.22 μm. The filtrates were diluted for HPLC analysis and final pH was measured. The solid residue of each sample was collected for XRPD analysis.
The solubilities of Form B in water and five different pH values at 25° C. were determined by HPLC after 24 h equilibration. Solubility data for Form B was obtained across the physiological pH by using buffer solutions from pH 2 to pH 10.
Preparation of pH Buffers • pH 2: 0.01N HCl solution. Dilute 1 ml of 1 N HCl with H2O up to a total volume of 100 ml. Measure the pH and precisely adjust to pH=2.00 using a few microliters of 1N HCl or 1N NaOH. • pH 4: 50 mM Na citrate buffer. Prepare a 50 mM citric acid solution by diluting 10 ml of 1N citric acid with H2O up to a total volume of 200 ml. Slowly add solid NaOH under stirring to increase the pH to 3.8-4.0 and use a few microliters of 1N NaOH for final adjustment to pH 4.00. • pH 6: 50 mM Na citrate buffer. Use the same procedure as the pH 4 buffer and adjust to pH=6.00 • pH 8: 50 mM Na phosphate buffer. Prepare a 50 mM NaH2PO4 solution by dissolving 6.00 g NaH2PO4 in 1 L of H2O and a 50 mM Na2HPO4 solution by dissolving 7.10 g in 1 L of H2O. Mix 10 ml of the NaH2PO4 solution with 140 ml of the Na2HPO4 solution in a beaker. Adjust to pH 8.00 by addition of small amounts of 50 mM NaH2PO4 or Na2HPO4 solution. • pH 10: 50 mM Na carbonate buffer. Prepare a 50 mM carbonate solution by dissolving 840 mg of sodium bicarbonate (NaHCO3) in about 180 ml of H2O. Slowly adjust the pH to 10.0±0.1 by addition of 1N NaOH. Add water to reach the total volume of 200 ml and adjust to pH 10.00 with 1N NaOH.

[4] = Dynamic vapor sorption (DVS) hygroscopicity; details: between 0% and 95% RH, 25° C.
Method: Form A may be observed EP-1. […] (peak temperature) which is accompanied by 5.9 wt % weight loss up to ˜150° C. in the TGA curve (FIG. 3). […] Form A is hygroscopic as indicated by water adsorption of 5.8 wt % at 80% RH measured by dynamic vapor sorption (DVS) (FIG. 4). A solid is considered moderately hygroscopic when water uptake at 25° C./80% RH is between 2-15 wt % based on criteria of European Pharmacopeia.
Form B of EP-1 trihydrate (x is 3) is a trihydrate as confirmed by single crystal analysis. The experimental XRPD pattern of Form B matches well with the simulated one from single crystal data (FIG. 6). This was also confirmed by DSC and TGA data (FIG. 7 and FIG. 8, respectively). DSC data indicates Form B dehydrates at ˜132° C. […] Form B is slightly hygroscopic as evidenced by a weight change of ˜0.3% between 0% and 95% RH (FIG. 9), (data collection was programmed from 95% RH-0% RH-95% RH at a step size of 10% RH at 25° C.).

[5] = 0.01N HCl Dark, Vis Stability (1.2 Mil lux-hours), final pH 2.1
[6] = 0.01N HCl Dark, Vis-UV Stability (1.2 Mil lux-hours + 200 Watt-hours/m^2), final pH 2.1
[7] = 0.01N HCl Light, Vis Stability (1.2 Mil lux-hours), final pH 2.1
[8] = 0.01N HCl Light, Vis-UV Stability (1.2 Mil lux-hours + 200 Watt-hours/m^2), final pH 2.1
[9] = 0.01N NaOH Dark, Vis Stability (1.2 Mil lux-hours), final pH 11.6, precipitation observed
[10] = 0.01N NaOH Dark, Vis-UV Stability (1.2 Mil lux-hours + 200 Watt-hours/m^2), final pH 11.7, precipitation observed
[11] = 0.01N NaOH Light, Vis Stability (1.2 Mil lux-hours), final pH 11.7, precipitation observed
[12] = 0.01N NaOH Light, Vis-UV Stability (1.2 Mil lux-hours + 200 Watt-hours/m^2), final pH 11.7, precipitation observed
[13] = H2O Dark, Vis Stability (1.2 Mil lux-hours), final pH 7.7
[14] = H2O Dark, Vis-UV Stability (1.2 Mil lux-hours + 200 Watt-hours/m^2), final pH 8.1
[15] = H2O Light, Vis Stability (1.2 Mil lux-hours), final pH 7.3
[16] = H2O Light, Vis-UV Stability (1.2 Mil lux-hours + 200 Watt-hours/m^2), final pH 7.3

CC(C)N(C[C@H]1O[C@@H](n2cnc3c(N)ncnc32)[C@H](O)[C@@H]1O)[C@H]1C[C@@H](CCc2nc3cc(C(C)(C)C)ccc3[nH]2)C1 [Form B, (2R,3R,4S,5R)-2-(6-amino-9H-purin-9-yl)-5-((((1r,3S)-3-(2-(5-(tert-butyl)-1H-benzo[d]imidazol-2-yl)ethyl)cyclobutyl)(isopropyl)amino)methyl)tetrahydrofuran-3,4-diol trihydrate]
Physical: XRPD [1]: Form B
Chemical: % Claim (Cs/Ci × 100%) ([1]; sample used as standard for the calculation): 100.0^& %
% area (100% − TRS%) (Solution photostability; [5]): 99.4%
% claim (Cs/Ci × 100%) (Solution photostability; [5]): 100.0%
% area (100% − TRS%) (Solution photostability; [6]): 99.9%
% claim (Cs/Ci × 100%) (Solution photostability; [6]): 100.0%
% area (100% − TRS%) (Solution photostability; [7]): 98.5%
% claim (Cs/Ci × 100%) (Solution photostability; [7]): 98.8%
% area (100% − TRS%) (Solution photostability; [8]): 99.9%
% claim (Cs/Ci × 100%) (Solution photostability; [8]): 99.9%
% area (100% − TRS%) (Solution photostability; [9]): 99.7%
% claim (Cs/Ci × 100%) (Solution photostability; [9]): 100.0%
% area (100% − TRS%) (Solution photostability; [10]): 100.0%
% claim (Cs/Ci × 100%) (Solution photostability; [10]): 100.0%
% area (100% − TRS%) (Solution photostability; [11]): 99.6%
% claim (Cs/Ci × 100%) (Solution photostability; [11]): 44.5%
% area (100% − TRS%) (Solution photostability; [12]): 99.3%
% claim (Cs/Ci × 100%) (Solution photostability; [12]): 66.3%
% area (100% − TRS%) (Solution photostability; [13]): 100.0%
% claim (Cs/Ci × 100%) (Solution photostability; [13]): 100.0%
% area (100% − TRS%) (Solution photostability; [14]): 100.0%
% claim (Cs/Ci × 100%) (Solution photostability; [14]): 100.0%
% area (100% − TRS%) (Solution photostability; [15]): 99.6%
% claim (Cs/Ci × 100%) (Solution photostability; [15]): 98.5%
% area (100% − TRS%) (Solution photostability; [16]): 99.3%
% claim (Cs/Ci × 100%) (Solution photostability; [16]): 94.7%
solution photostability (Solution photostability; in water and 0.01N HCl solution, exposure to UV/Vis): stable
Remaining Solid ([2]; Acetone): Form B
Remaining Solid ([2]; Acetonitrile): Form B
solubility at 24 h ([2]; Ethanol): > 87 mg/mL
solubility at 24 h ([2]; Isopropanol): > 129 mg/mL
solubility at 24 h ([2]; Methanol): > 200 mg/mL
Solubility ([3]; 50 mM Na carbonate buffer, pH (initial) 10.0, pH (final) 10.0, RT, 24 h): <LOD
Solubility ([3]; 50 mM Na phosphate buffer, pH (initial) 8.0, pH (final) 8.0, RT, 24 h): <LOD^§
solubility at 24 h ([3]; 50 mM sodium citrate buffer, 25 °C, pH 6, aqueous buffer, thermodynamic from solid, 50 mM sodium citrate, pH (initial) 6.0, pH (final) 6.0, RT): 0.08 mg/mL
Remaining Solid ([3]; Water, RT, 24 h, XRPD): Form B
weight change [4]: ~0.3%
